For one compound, Activity and IC50 results are on record in ChEMBL document CHEMBL1681767, “Design and synthesis of tricyclic tetrahydroquinolines as a new series of nonsteroidal selective androgen receptor modulators (SARMs)” (Bioorg Med Chem Lett, 2011).

The subject of experiment [1] is Rattus norvegicus. Briefly: Recovery of […] weight in orchidectomized Sprague-Dawley rat at 3 mg/kg, sc relative to control. Type of experiment: functional. The following applies: route subcutaneous.
The nature of experiment [2]: Displacement of [3H]17-beta-estradiol from rabbit ER by liquid scintillation counting. The arrangement: species or system Oryctolagus cuniculus.
The target in the next experiment is T1, Progesterone receptor (Oryctolagus cuniculus, UniProt P06186).
T1 sequence (P06186 whole entry): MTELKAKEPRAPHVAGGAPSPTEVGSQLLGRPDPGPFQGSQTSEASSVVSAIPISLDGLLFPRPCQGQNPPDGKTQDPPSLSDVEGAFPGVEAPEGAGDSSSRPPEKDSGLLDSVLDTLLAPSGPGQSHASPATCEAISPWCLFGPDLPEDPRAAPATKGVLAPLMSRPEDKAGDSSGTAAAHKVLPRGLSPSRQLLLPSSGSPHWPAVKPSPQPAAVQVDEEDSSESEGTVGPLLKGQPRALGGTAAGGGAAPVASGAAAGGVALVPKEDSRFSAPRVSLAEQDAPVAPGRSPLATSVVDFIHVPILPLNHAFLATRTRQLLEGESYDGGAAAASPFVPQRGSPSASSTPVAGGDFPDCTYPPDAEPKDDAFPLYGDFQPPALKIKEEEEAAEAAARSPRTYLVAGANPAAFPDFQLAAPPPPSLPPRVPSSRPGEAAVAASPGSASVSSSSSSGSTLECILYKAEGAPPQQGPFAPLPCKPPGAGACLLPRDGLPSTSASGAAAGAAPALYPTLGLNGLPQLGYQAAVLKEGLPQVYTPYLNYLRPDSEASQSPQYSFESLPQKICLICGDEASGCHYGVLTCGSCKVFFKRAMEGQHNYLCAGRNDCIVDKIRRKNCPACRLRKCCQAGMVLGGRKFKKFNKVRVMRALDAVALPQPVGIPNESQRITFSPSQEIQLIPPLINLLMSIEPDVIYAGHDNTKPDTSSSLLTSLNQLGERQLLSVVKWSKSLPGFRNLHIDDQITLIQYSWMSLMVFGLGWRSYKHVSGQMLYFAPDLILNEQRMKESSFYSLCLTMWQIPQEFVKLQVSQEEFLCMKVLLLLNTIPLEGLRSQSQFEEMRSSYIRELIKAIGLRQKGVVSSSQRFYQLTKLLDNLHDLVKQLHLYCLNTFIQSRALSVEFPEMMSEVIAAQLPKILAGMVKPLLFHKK
Nature of the experiment: Displacement of [3H]progesterone from rabbit PR by liquid scintillation counting. Background: Displacement assays read how much labelled ligand stays bound in the presence of the test substance.

The target in experiment [3] is T2, Mineralocorticoid receptor (Rattus norvegicus, UniProt P22199).
T2 sequence (P22199 whole entry): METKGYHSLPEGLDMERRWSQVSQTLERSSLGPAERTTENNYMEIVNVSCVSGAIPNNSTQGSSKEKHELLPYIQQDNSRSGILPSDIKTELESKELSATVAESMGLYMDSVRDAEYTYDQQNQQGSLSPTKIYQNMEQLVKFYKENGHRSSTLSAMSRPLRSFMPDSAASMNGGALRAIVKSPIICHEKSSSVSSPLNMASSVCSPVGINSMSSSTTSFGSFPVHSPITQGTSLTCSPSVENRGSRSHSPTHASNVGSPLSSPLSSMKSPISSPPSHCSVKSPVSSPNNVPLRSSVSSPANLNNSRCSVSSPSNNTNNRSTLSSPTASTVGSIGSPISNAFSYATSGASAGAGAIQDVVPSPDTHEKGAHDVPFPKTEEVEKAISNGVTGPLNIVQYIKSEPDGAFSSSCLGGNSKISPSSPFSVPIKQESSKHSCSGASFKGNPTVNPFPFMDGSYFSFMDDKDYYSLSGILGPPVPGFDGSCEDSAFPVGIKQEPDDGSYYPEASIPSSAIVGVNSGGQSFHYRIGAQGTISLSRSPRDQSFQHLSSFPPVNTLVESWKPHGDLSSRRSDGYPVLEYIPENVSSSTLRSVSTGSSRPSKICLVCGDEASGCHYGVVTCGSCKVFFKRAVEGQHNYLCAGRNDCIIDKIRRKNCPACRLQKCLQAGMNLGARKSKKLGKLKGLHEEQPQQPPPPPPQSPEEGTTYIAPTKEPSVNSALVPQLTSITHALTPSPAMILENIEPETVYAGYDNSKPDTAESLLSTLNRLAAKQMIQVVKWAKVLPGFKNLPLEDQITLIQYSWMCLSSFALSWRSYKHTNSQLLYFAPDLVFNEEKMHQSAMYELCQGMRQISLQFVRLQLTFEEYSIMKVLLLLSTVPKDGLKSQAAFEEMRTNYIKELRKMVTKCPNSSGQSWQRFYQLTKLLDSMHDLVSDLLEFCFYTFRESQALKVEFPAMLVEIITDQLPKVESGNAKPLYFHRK
Briefly: Displacement of [3H]aldosterone from Sprague-Dawley rat MR by liquid scintillation counting.

The next experiment concerns the target T3, Glucocorticoid receptor (Rattus norvegicus, UniProt P06536).
T3 sequence (P06536 whole entry): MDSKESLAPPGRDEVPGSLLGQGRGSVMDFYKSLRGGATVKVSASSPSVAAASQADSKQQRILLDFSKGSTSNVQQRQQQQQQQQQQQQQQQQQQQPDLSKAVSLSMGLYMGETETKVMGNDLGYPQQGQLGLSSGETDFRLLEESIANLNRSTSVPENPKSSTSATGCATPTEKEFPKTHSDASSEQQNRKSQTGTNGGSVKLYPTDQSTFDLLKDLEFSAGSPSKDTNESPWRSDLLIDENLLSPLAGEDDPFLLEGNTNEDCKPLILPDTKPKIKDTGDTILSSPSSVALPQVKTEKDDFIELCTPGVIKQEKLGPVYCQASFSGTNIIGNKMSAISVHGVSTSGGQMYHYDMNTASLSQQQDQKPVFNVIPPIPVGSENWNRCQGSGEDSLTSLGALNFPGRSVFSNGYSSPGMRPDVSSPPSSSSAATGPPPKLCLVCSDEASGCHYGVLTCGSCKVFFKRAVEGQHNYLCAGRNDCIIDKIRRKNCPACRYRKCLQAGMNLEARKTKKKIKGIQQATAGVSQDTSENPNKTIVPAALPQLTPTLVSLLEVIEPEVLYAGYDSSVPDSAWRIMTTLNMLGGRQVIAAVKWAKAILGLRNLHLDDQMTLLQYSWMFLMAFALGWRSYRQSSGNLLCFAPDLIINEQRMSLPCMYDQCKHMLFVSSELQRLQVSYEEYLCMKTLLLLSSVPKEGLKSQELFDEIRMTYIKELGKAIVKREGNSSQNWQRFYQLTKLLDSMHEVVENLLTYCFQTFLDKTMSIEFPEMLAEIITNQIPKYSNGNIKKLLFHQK
Nature of the experiment: Displacement of [3H]dexamethasone from Sprague-Dawley rat GR by liquid scintillation counting.

For experiment [4], the system named is Rattus norvegicus. Nature of the experiment: Recovery of levator ani muscle weight in orchidectomized Sprague-Dawley rat at 3 mg/kg, sc. It is filed as functional, organism-based. Also on record: dose 3 mg/kg.

Molecules are shown by their SMILES. Activity calls are given as the source filed them. No cut-off for these calls is given here.

Usually IC50 stands for the midpoint of a concentration-inhibition curve. Lower therefore signals greater potency. As to `CC(C)(CO)[C@H]1Nc2ccc([N+](=O)[O-])cc2[C@H]2C=CC[C@H]21`, the Activity in the experiment on Rattus norvegicus [1] stood at 50%. In addition, the IC50 in experiment [2] is > 1000 µM; at Progesterone receptor it was 0.13 µM; in experiment [3], 6.3 µM; on Glucocorticoid receptor it was 18 µM. The result in the experiment on Rattus norvegicus [4] was Active.
